Structures are written as SMILES.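 Assay format: 96-well plates, 48-hour exposure. GI50 marks 50% less growth.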 Activity calls are given as the source filed them. Cut-off read from the data, not from the text of the source: active = GI50 up to about 1.1 µM and inactive = higher.

Common to all, as to assay: inhibition of tumour cell growth, NCI panel, 48 h
Experiment [1] deals with 786-0.
Experiment [2] deals with COLO 205.
Experiment [3] relates to HCC 2998.
In experiment [4] the test system is KM-20L2.
The subject of experiment [5] is Malme-3M.
Experiment [6] relates to NCI-H23.
The subject of experiment [7] is SF-539.
Experiment [8] relates to SK-OV-3.
Experiment [9] deals with SN12C.
In experiment [10] the test system is SNB-19.
Experiment [11] concerns SNB-75.
Experiment [12] has as its system CCRF-CEM.
The test system of experiment [13] is K562.
The subject of experiment [14] is SF-295.
The test system of experiment [15] is NCI-H226.
For experiment [16], the system named is OVCAR-5.
The test system of experiment [17] is BT-549.
For experiment [18], the system named is MDA-MB-231.
For experiment [19], the system named is MDA-N.
For experiment [20], the system named is SR.

With `O=C1/C(=C/c2ccc(Cl)cc2)CNC/C1=C\c1ccc(Cl)cc1`, the GI50 in experiment [1] is 2.07 µM (inactive); in experiment [2], 2.03 µM (inactive); in experiment [3], 2.23 µM (inactive); in [4], 2.64 µM (inactive); in experiment [5], 3.81 µM (inactive); in experiment [6] it was 1.95 µM (inactive). Moreover, the GI50 in [7] is 1.77 µM (inactive); in experiment [8], 10.8 µM (inactive); in [9] it was 2.67 µM (inactive); in experiment [10] it was 1.7 µM (inactive); in experiment [11] it was 2.9 µM (inactive).
In the case of `CN(C)CCC(CCN(C)C)=NOC(=O)c1ccccc1`, the GI50 in [1], in [12], in [2], in [3], in experiment [13] and in [4] was > 100 µM (inactive) throughout. The GI50 in [5], in [6], in experiment [14], in experiment [7], in experiment [8] and in experiment [9] was > 100 µM (inactive) throughout. For the same compound, the GI50 in experiment [10] and in experiment [11] was > 100 µM (inactive) in each case.
`COc1ccc(C2c3cc4c(cc3OC(O)(CO)C2C(=O)O)OCO4)c(OC)c1OC.COc1ccc(C2c3cc4c(cc3OC3(O)COC(=O)C23)OCO4)c(OC)c1OC` (configuration not stated): the GI50 in experiment [1] was > 100 µM (inactive); in experiment [12], 39.4 µM (inactive); in experiment [2], > 100 µM (inactive); in experiment [13] it was 46.2 µM (inactive); in [4], > 100 µM (inactive); in [5], > 100 µM (inactive). Moreover, the GI50 in [6], in experiment [14], in experiment [7], in experiment [8], in experiment [9] and in experiment [10] was > 100 µM (inactive) in each case. Also, in experiment [11], the GI50 is 75.2 µM (inactive).
Regarding `NC(=S)N/N=C(\C(=O)Nc1cccc([N+](=O)[O-])c1)c1nc2ccc([N+](=O)[O-])cc2nc1O`, the GI50 in experiment [1] was > 100 µM (inactive); in experiment [12] it was 34.8 µM (inactive); in [2], > 100 µM (inactive); in experiment [3] it was 21.9 µM (inactive); in experiment [13], 89.5 µM (inactive); in experiment [4], 37.2 µM (inactive). The GI50 in experiment [5] is > 100 µM (inactive); in experiment [15] it was > 100 µM (inactive); in experiment [6] it was > 100 µM (inactive); in [16], > 100 µM (inactive); in experiment [14], > 100 µM (inactive); in experiment [7] it was 63.1 µM (inactive). In addition, the GI50 in experiment [8], in experiment [10] and in experiment [11] was > 100 µM (inactive) in each case.
As for `COc1ccc([C@@H]2OC(=O)C3C2C(=O)O[C@H]3c2ccc(OC)c(OC)c2)cc1OC` (some centres not stated), the GI50 in experiment [1], in experiment [12], in experiment [2], in experiment [3], in experiment [13] and in experiment [4] was > 100 µM (inactive) in each case. Further, the GI50 in experiment [5], in [15], in experiment [6], in experiment [14], in [7] and in experiment [8] was > 100 µM (inactive) throughout. Further, the figures for the GI50 in experiment [9], in experiment [10] and in experiment [11] were > 100 µM (inactive), > 100 µM (inactive) and 81.5 µM (inactive), respectively.
Take `CN(C)Cc1cc(/N=N/c2ccccc2Cl)ccc1O`: the GI50 in experiment [1] is 15.5 µM (inactive); in experiment [17], 17 µM (inactive); in experiment [12], 17.4 µM (inactive); in experiment [2] it was 13.4 µM (inactive); in [3], 13.5 µM (inactive); in experiment [13] it was 16.7 µM (inactive). Besides, the GI50 in [18] was 18.2 µM (inactive); in experiment [19], 17.5 µM (inactive); in [5], 12.6 µM (inactive); in experiment [15], 16.1 µM (inactive); in experiment [6], 24.7 µM (inactive); in [16] it was 22.9 µM (inactive). The GI50 in experiment [14] is 16.6 µM (inactive); in experiment [7] it was 24.3 µM (inactive); in [8], 39.2 µM (inactive); in experiment [9], 25.6 µM (inactive); in [10], 32.2 µM (inactive); in experiment [11], 18.7 µM (inactive). Moreover, the GI50 in experiment [20] is 26.5 µM (inactive).
On to `CCSSCS(C)(=O)=O`, for which the GI50 in [1] is 5.82 µM (inactive); in [17], 32.1 µM (inactive); in experiment [12] it was 3.9 µM (inactive); in experiment [2], 6.4 µM (inactive); in experiment [3], 18.9 µM (inactive); in experiment [13], 3.88 µM (inactive). In addition, the GI50 was 89.1 µM (inactive) in experiment [18]; 10.5 µM (inactive) in [19]; 77.3 µM (inactive) in [5]; 29.8 µM (inactive) in experiment [15]; 32.9 µM (inactive) in experiment [6]; 53.1 µM (inactive) in experiment [16]. The GI50 in experiment [14] is 59.3 µM (inactive); in experiment [7], 8.81 µM (inactive); in experiment [8] it was 56.6 µM (inactive); in experiment [9], 24.8 µM (inactive); in [10], 42.7 µM (inactive); in experiment [11] it was 23.3 µM (inactive). In addition, the GI50 in experiment [20] is 12.9 µM (inactive).
Regarding `COc1ccc(CC(=O)c2cc(OC)c(OC)cc2C)cc1OC`, the GI50 in [1] is > 100 µM (inactive); in experiment [12], > 100 µM (inactive); in experiment [2], > 100 µM (inactive); in experiment [3], > 100 µM (inactive); in experiment [13], 57.5 µM (inactive); in experiment [4], > 100 µM (inactive). In addition, the GI50 in [5] is > 100 µM (inactive); in experiment [6], 20.5 µM (inactive); in [16] it was > 100 µM (inactive); in experiment [14], 57.4 µM (inactive); in [8] it was > 100 µM (inactive); in experiment [9], 55.1 µM (inactive). In addition, the values for the GI50 in [10] and in experiment [11] were 68.4 µM (inactive) and > 100 µM (inactive), respectively.
As to `O=C(N/N=C(/c1nc2ccc(Cl)cc2[nH]c1=O)C(O)c1ccc(Cl)cc1Cl)c1ccncc1` (configuration not stated), the GI50 in [1], in [12], in [2], in experiment [3], in experiment [13] and in experiment [4] was > 100 µM (inactive) throughout. The GI50 in experiment [5], in experiment [15], in experiment [6], in experiment [16], in experiment [14] and in experiment [7] was > 100 µM (inactive) throughout. Further, the GI50 in [8], in experiment [10] and in experiment [11] was > 100 µM (inactive) throughout.
With `O=C1CN2CCN(CC2)CC(=O)Nc2ccc(cc2)S(=O)(=O)c2ccc(cc2)NC(=O)CN2CCN(CC2)CC(=O)Nc2ccc(cc2)S(=O)(=O)c2ccc(cc2)N1`, the GI50 in [1] was 33.3 µM (inactive); in [17] it was 31.5 µM (inactive); in [12], 0.31 µM (active); in experiment [2], 40.7 µM (inactive); in [3], > 61.9 µM (inactive); in experiment [13], 15.8 µM (inactive). Besides, the GI50 is 16.1 µM (inactive) in experiment [18]; 41.8 µM (inactive) in [19]; 15.8 µM (inactive) in [5]; 64.7 µM (inactive) in experiment [15]; 44 µM (inactive) in experiment [6]; 37.3 µM (inactive) in experiment [16]. The GI50 was > 88.7 µM (inactive) in experiment [14]; 23.3 µM (inactive) in [7]; > 100 µM (inactive) in experiment [8]; > 97.5 µM (inactive) in [9]; > 100 µM (inactive) in experiment [10]; > 100 µM (inactive) in [11]. Also, the GI50 in experiment [20] was 4.56 µM (inactive).
Take `O=C(O)CCC(NC(=O)c1ccc(Nc2cnc3ccc(C(F)(F)F)cc3n2)cc1)C(=O)O` (configuration not stated): the GI50 in [1], in experiment [17], in experiment [12], in experiment [2], in [3] and in [13] was > 100 µM (inactive) each time. Besides, the GI50 in [18], in experiment [19], in experiment [5], in experiment [15], in experiment [6] and in experiment [16] was > 100 µM (inactive) each time. Besides, the GI50 in experiment [14], in [7], in experiment [8], in experiment [9], in experiment [10] and in [11] was > 100 µM (inactive) throughout. The GI50 in experiment [20] was > 100 µM (inactive).
In the case of `Cn1cc(C[C@@H](N)C(=O)O)c2ccccc21` [INDOXIMOD], the GI50 in experiment [1], in experiment [17], in [12], in experiment [2], in [3] and in experiment [13] was > 100 µM (inactive) in each case. In addition, the GI50 in [18], in [19], in experiment [5], in experiment [15], in experiment [6] and in experiment [16] was > 100 µM (inactive) each time. Further, the GI50 in [14], in experiment [7], in experiment [8], in [9], in experiment [10] and in [11] was > 100 µM (inactive) each time. Besides, the GI50 in experiment [20] is > 100 µM (inactive).

Source of the values: ChEMBL document CHEMBL1201862, “PubChem BioAssay data set” (2004).
